According to patent publication US9359372B2, “Hexahydrodibenzo[a,g]quinolizine compound, preparation method thereof, pharmaceutical composition and use thereof” (SHANGHAI INSTITUTE OF MATERIA MEDICA, CHINESE ACADEMY OF …, priority 2011, dated 2016):

What was measured:
dopamine D1 receptor = dopamine D1 receptor (Macaca mulatta (Rhesus macaque), UniProt O77680); test: Affinity on dopamine D1 receptor, competition with [3H] SCH23390; type: binding; parameters: D1 receptor inhibition ratio (%): concentration or dose not given beside the values; details: for affinity on dopamine D1 receptor (in words): summary of the tables
Chain of dopamine D1 receptor (O77680 whole entry): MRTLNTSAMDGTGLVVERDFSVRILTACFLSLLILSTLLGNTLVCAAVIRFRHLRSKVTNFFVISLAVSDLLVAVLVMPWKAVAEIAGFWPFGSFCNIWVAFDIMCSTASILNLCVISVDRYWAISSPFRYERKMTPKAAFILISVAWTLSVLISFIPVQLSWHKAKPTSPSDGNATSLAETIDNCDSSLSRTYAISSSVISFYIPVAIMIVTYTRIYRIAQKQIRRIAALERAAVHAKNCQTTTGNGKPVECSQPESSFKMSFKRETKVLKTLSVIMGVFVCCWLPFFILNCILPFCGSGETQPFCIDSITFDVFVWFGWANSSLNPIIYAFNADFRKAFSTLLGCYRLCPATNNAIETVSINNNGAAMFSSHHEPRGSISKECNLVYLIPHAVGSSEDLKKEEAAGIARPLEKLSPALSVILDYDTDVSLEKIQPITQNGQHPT
Experimental: (§1) (1). Determination of the Affinity of Hexahydrodibenzo[a,g]Quinolizine Compound of General Formula I and Derivatives Thereof on Dopamine D1, Dopamine D2, 5-HT1A, and 5-HT2A Receptor.
(§2) 1) The Experimental Method
(§3) Different concentrations (10^−5 M-10^−11 M) of the compound of the invention and corresponding isotope receptor ligand as well as receptor protein were loaded into the reaction tube and incubated in 30° C. water bath for 60 minutes. The reaction was terminated in a refrigerator. The reaction mixture was put in a Millipore filter (millipore) cell sample collector, filtered through suction filtration using GF/C glass fiber filter paper, and dried. The resulting sample was placed into 0.5 mL tube. 500 μL liquid scintillation fluid was added and intensity of radioactivity was determined by counting.
(§4) (1) Construction of receptor and materials for cell culture: Escherichia coli. DH5α strain; insect virus transfer vector pVL1393 plasmid; BaculoGold linear Chinese baculovirus DNA, purchased from ParMingen company; mkD1RcDNA; rD2R cDNA; various restriction endonucleases, TaqDNA polymerase, T4 ligase, etc., LB medium; insect cell culture TNM-FH.
(§5) (2) the Experimental Materials for Receptor Binding
(§6) Firstly, the above […] are dissolved in DMSO and then diluted with double distilled water to the appropriate concentration (10^−5 M-10^−11 M).
(§7) (+) Butaclamo purchased from RBI company, GF/C glass fiber filter paper purchased from Whatman Co., scintillation fluid (dopamine D1, D2 receptors)/liposoluble scintillation fluid (5-HT1A, 5-HT2A receptor), Beckman LS-6500 multi-function liquid scintillation counter.

D2 dopamine receptor = D2 dopamine receptor (Rattus norvegicus (Rat), UniProt P61169); test: Affinity on dopamine D2 receptor, competition with [3H] Spiperone; type: binding; parameters: D2 receptor inhibition ratio (%): concentration or dose not given beside the values; details: for affinity on dopamine D2 receptor (in words): summary of the tables
Chain of D2 dopamine receptor (P61169 whole entry): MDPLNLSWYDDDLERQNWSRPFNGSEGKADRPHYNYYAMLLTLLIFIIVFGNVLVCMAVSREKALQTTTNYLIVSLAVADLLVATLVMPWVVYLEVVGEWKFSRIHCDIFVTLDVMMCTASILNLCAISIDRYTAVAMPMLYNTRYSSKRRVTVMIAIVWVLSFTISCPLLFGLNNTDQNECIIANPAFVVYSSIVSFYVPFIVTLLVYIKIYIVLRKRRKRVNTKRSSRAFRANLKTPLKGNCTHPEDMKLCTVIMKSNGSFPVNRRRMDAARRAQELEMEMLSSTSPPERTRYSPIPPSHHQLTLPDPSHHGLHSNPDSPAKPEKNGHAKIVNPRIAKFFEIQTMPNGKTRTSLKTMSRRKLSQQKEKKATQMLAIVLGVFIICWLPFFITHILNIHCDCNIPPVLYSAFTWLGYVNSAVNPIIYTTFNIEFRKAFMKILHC
Experimental: as §1, §2, §3, §4, §5, §6, §7

dopamine D2 receptor [1] = target: T1, dopamine D2 receptor (Homo sapiens (Human), UniProt P14416); test: Inhibition property on dopamine D2 receptor, cAMP detection in CHO cells stably expressing D2 receptor; type: cell-based; details: 10 μM Forskoline and 10 μM dopamine, read-out: D2 receptor Antagonist IC50
T1 sequence (P14416 whole entry, species assumed): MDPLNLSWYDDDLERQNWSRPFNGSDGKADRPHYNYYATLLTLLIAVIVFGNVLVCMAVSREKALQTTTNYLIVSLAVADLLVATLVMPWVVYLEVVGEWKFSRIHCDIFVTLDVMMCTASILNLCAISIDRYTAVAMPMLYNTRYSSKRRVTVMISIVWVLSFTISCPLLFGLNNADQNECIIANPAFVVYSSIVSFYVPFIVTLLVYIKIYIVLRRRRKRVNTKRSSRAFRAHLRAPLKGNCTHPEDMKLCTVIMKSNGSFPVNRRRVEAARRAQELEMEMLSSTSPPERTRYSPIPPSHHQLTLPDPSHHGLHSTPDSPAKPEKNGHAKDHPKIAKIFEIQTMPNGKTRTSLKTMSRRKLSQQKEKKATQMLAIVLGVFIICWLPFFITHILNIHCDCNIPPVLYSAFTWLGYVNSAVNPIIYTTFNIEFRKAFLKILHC
Experimental: 2. Determination of the Inhibition Property of Hexahydrodibenzo[a,g]Quinolizine Compound of General Formula I and Derivatives Thereof on Dopamine D2 Receptor.
(1) The Experimental Method
Each medicament was dissolved in serum-free F12 culture medium containing 100 μM of IBMX. CHO cells which can stably express D2 receptor were pre-incubated at 37° C. for 10 min, and then 10 μM Forskoline and 10 μM Dopanie were added at the same time to react for 10 min. 100 μL, of pre-cooled 1 M of HClO4 was added and the reaction was terminated at 4° C. for 1 hour. 20 μL of 2 M K2CO3 was added to neutralize the reaction. […] A certain amount of the supernatant was taken for cAMP detection.

D1 dopamine receptors = D1 dopamine receptors (Homo sapiens (Human), UniProt P21728); test: Radioligand binding assay, D1 receptor, HEK293T membrane homogenates; details: HEK293T membranes, [3H]SCH23390
Chain of D1 dopamine receptors (P21728 whole entry): as the sequence (O77680 whole entry) above, with I311N counted along it
Experimental: (§8) The affinity of compounds to D1 and D2 dopamine receptors were determined by competition binding assays. Membrane homogenates of HEK293T cells were stably transfected with D1, or D2 receptors. […] The reaction was started by addition of membranes ([…]) and stopped by rapid filtration through Whatman GF/B glassfiber filter and subsequently washed with cold buffer (50 mM Tris, 5 mM EDTA, pH 7.4) using a Brandel 24-well cell harvester. Scintillation cocktail was added and the radioactivity was determined in a MicroBeta liquid scintillation counter. The IC50 and Ki values were calculated by nonlinear regression (PRISM, Graphpad, San Diego, Calif.) using a sigmoidal function.

dopamine D2 receptor [2] = target: T1, dopamine D2 receptor; test: Radioligand binding assay, D2 receptor, HEK293T membrane homogenates; parameters: D2 Inhibition (%): concentration or dose not given beside the values; details: HEK293T membranes, [3H]Spiperone
Experimental: as §8

5-HT1A receptor = 5-HT1A receptor (Homo sapiens (Human), UniProt P08908); test: Affinity on 5-HT1A receptor, competition with [3H] 8-OH-DPAT; type: binding
Chain of 5-HT1A receptor (P08908 whole entry): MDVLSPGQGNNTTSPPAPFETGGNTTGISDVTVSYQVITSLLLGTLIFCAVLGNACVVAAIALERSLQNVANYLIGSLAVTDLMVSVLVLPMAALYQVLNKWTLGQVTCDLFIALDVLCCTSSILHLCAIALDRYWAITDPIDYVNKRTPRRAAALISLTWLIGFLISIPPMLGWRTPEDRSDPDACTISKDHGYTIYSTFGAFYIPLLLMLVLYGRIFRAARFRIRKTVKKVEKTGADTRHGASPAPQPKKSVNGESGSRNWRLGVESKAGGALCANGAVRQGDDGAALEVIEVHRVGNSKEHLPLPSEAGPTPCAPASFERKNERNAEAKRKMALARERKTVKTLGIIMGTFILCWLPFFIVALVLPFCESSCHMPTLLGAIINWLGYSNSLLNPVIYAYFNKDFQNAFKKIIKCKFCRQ
Experimental: as §1, §2, §3, §5
8-OH-DPAT; 5-HT1A receptor protein expressed in HEK-293 cells;
as §6, §7

D1 receptor = D1 receptor (Homo sapiens (Human), UniProt P21728); test: [35S]GTPγS binding assay for D1 receptor; type: biochemical
Chain of D1 receptor (P21728 whole entry): as the sequence (O77680 whole entry) above, with I311N counted along it

Structure (SMILES)	D1 receptor inhibition ratio (%) (dopamine D1 receptor)	IC50 (dopamine D1 receptor)	Ki (dopamine D1 receptor)	D2 receptor inhibition ratio (%) (D2 dopamine receptor)	Ki (D1 dopamine receptors)	also measured
COc1cc2c(cc1OC)C1Cc3c(OC)ccc(OC)c3CN1CC2 (racemic) [DC037003, (±)-2,3,9,12-tetramethoxy-5,8,13,13a-tetrahydro-6H-dibenzo[a,g]quinolizine]	98.0%	0.37 µM	0.247 µM	75.75%		IC50 (dopamine D2 receptor [1]): 3.3 µM
COc1cc2c(cc1OC)C1Cc3cc(C)cc(C)c3CN1CC2 (racemic) [DC037018, (±)-2,3-bimethoxy-9,11-dimethyl-5,8,13,13a-tetrahydro-6H-dibenzo[a,g]quinolizine]	82.5%	2.92 µM	1.44 µM	77.4%		IC50 (dopamine D2 receptor [1]): 15.6 µM
COc1cc2c(cc1OC)CN1CCc3cc(O)c(O)cc3C1C2 (racemic) [DC037024, (±)-2,3-bihydroxy-10,11-bimethoxy-5,8,13,13a-tetrahydro-6H-dibenzo[a,g]quinolizine]	91.3%	1.5 µM	0.741 µM	76.2%		IC50 (dopamine D2 receptor [1]): 0.591 µM
COc1ccc2c(c1)CCN1Cc3cc(OC)c(OC)cc3C[C@@H]21 [DC037010, S-(+3,10,11-trimethoxy-5,8,13,13a-tetrahydro-6H-dibenzo[a,g]quinolizine]	66.8%			51.5%		
COc1cc2c(cc1OC)[C@@H]1Cc3cc4c(cc3CN1CC2)OCO4 [DC037011, S-(−)-2,3-bimethoxy-10,11-methylenedioxy-5,8,13,13a-tetrahydro-6H-dibenzo[a,g]quinolizine]	59.3%			41.7%		
c1c2c(cc3c1OCO3)CN1CCc3cc4c(cc3[C@@H]1C2)OCO4 [DC037012, S-(−)-2,3,10,11-bimethylenedioxy-5,8,13,13a-tetrahydro-6H-dibenzo[a,g]quinolizine]	95.8%	0.3 µM	0.148 µM	89.3%		IC50 (D2 dopamine receptor): 1.24 µM; Ki (D2 dopamine receptor): 0.24 µM
COc1cc2c(cc1OC)CN1CCc3cc4c(cc3[C@@H]1C2)OCO4 [DC037015, S-(−)-2,3-methylenedioxy-10,11-bimethoxy-5,8,13,13a-tetrahydro-6H-dibenzo[a,g]quinolizine]	59.2%			59.3%		
COc1cc2c(c(OC)c1OC)CN1CCc3cc4c(cc3[C@@H]1C2)OCO4 [DC037016, S-(−)-2,3-methylenedioxy-9,10,11-bimethoxy-5,8,13,13a-tetra-hydro-6H-dibenzo[a,g]quinolizine]	95.5%	0.763 µM	0.377 µM	66.2%		
COc1cc2c(cc1OC)[C@@H]1Cc3cc(OC)c(OC)c(OC)c3[C@H](C)N1CC2 [DC037019, (8S,14S)-2,3,9,10,11-pentamethoxyl-8-methyl-5,8,13,13a-tetra-hydro-6H-dibenzo[a,g]quinolizine]	10.3%			65.3%		
COc1cc2c(cc1OC)[C@@H]1Cc3cc4c(cc3[C@H](C)N1CC2)OCO4 [DC037020, (8S,14S)-2,3-bimethoxy-8-methyl-10,11-methylenedioxy-5,8,13,13a-tetrahydro-6H-dibenzo[a,g]quinolizine]	47.3%			57.1%		
COc1cc2c(cc1O)[C@@H]1Cc3cc(C)cc(C)c3CN1CC2 [DC037031, S-(−)-2-hydroxy-3-methoxy-9,11-dimethyl-5,8,13,13a-tetra-hydro-6H-dibenzo[a,g]quinolizine]	98.99%	0.0564 µM	0.0289 µM	90.10%	0.0289 ± 0.00273 µM	affinity on dopamine D1 receptor (in words) (dopamine D1 receptor): strong affinity; IC50 (D2 dopamine receptor): 0.456 µM; Ki (D2 dopamine receptor): 0.161 µM; affinity on dopamine D2 receptor (in words) (D2 dopamine receptor): strong affinity; Ki (dopamine D2 receptor [2]): 0.161 ± 0.0211 µM
Cc1ccc(C)c2c1CC1c3cc4c(cc3CCN1C2)OCO4 (stereo not drawn) [DC037033, S-(−)-2,3-methylenedioxy-9,12-dimethyl-5,8,13,13a-tetrahydro-6H-dibenzo[a,g]quinolizine]	91.94%			13.75%		
COc1ccc(OC)c2c1C[C@H]1c3cc4c(cc3CCN1C2)CCO4 [DC037034, S-(+9,12-bimethoxy-2,3,5,8,13,13a-hexahydro-8H-benzo[3,2,a,g]furanquinolizine]		0.484 µM	0.248 µM			Ki (5-HT1A receptor): 0.497 µM
COc1ccc(OC)c2c1C[C@H]1c3cc(O)c(O)cc3CCN1C2 [DC037035, S-(−)-2,3-bihydroxy-9,12-bimethoxy-5,8,13,13a-tetrahydro-6H-dibenzo[a,g]quinolizine]	99.68%	0.0133 µM	0.00672 µM	84.30%	0.00672 ± 0.00034 µM	affinity on dopamine D1 receptor (in words) (dopamine D1 receptor): strong affinity; affinity on dopamine D2 receptor (in words) (D2 dopamine receptor): strong affinity; D2 Inhibition (%) (dopamine D2 receptor [2]): 84.30%
COc1cc2c(cc1OC)[C@@H]1Cc3c(CO)c(OC)cc(OC)c3CN1CC2 [DC037076, (S)-2,3,9,11-tetramethoxy-12-hydroxymethyl-5,8,13,13a-tetra-hydro-6H-dibenzo[a,g]quinolizine]					0.0745 ± 0.00385 µM	D2 Inhibition (%) (dopamine D2 receptor [2]): 1.02%
COc1cc2c(c(OC)c1)CN1CCc3cc4c(cc3[C@@H]1C2)OCO4 [DC037078, (S)-2,3-methylenedioxy-9,11-bimethoxy-5,8,13,13a-tetrahydro-6H-dibenzo[a,g]quinolizine]	97.79%	0.142 µM	0.0745 µM	1.02%	0.0641 ± 0.00443 µM	D2 Inhibition (%) (dopamine D2 receptor [2]): 39.50%
COc1cc2c(c(OC)c1)CN1CCc3cc(OC)c(O)cc3[C@@H]1C2 [DC037079, (S)-2-hydroxy-3,9,11-trimethoxy-5,8,13,13a-tetrahydro-6H-dibenzo-[a,g]quinolizine]	99.99%	0.00985 µM	0.00518 µM	76.21%	0.00253 ± 0.00016 µM	affinity on dopamine D1 receptor (in words) (dopamine D1 receptor): strong affinity; affinity on dopamine D2 receptor (in words) (D2 dopamine receptor): strong affinity; D2 Inhibition (%) (dopamine D2 receptor [2]): 83.31%; D1 antagonist Imax % (D1 receptor; [35S]GTPγS binding): 94.2 ± 1.5%; IC50 (D1 receptor; [35S]GTPγS binding, read-out: D1 antagonist IC50): 1.4 ± 0.2 µM; D1 receptor antagonistic activity (in words) (D1 receptor; summary of Table 10): D1 receptor antagonistic activity; D1 receptor selectivity (in words) (D1 receptor; summary of Table 10): good D1 receptor selectivity
COc1c(O)ccc2c1CN1CCc3cc4c(cc3[C@@H]1C2)OCC4 [DC037081, S-(−)-9-methoxyl-10-hydroxy-2,3,5,8,13,13a-hexahydro-8H-benzo[3,2,a,g]furanquinolizine]	22.60%			73.07%	0.0173 ± 0.00054 µM	Ki (dopamine D2 receptor [2]): 0.147 ± 0.0102 µM
COc1c(O)ccc2c1CN1CCc3cc4c(cc3[C@@H]1C2)OCCO4 [DC037082, S-(−)-2,3-bimethylenedioxy-9-methoxyl-10-hydroxy-5,8,13,13a-tetrahydro-6H-dibenzo[a,g]quinolizine]	99.32%	0.0146 µM	0.00751 µM	63.94%		affinity on dopamine D1 receptor (in words) (dopamine D1 receptor): strong affinity; affinity on dopamine D2 receptor (in words) (D2 dopamine receptor): strong affinity
Oc1cc2c(cc1O)C(c1ccccc1)CNCC2 (centres unmarked) [SKF38393, reference compound]						Emax (D1 receptor; [35S]GTPγS binding, read-out: D1 agonist Emax %): 100%
